Assay results: the NIST ThermoML archive (doi:10.1016/j.jct.2004.07.012)
± gives the expanded uncertainty stated by the source.

Settings: 298.15 K; 101.33 kPa; Liquid

| Structure (SMILES) | mass density [kg/m3] |
| --- | --- |
| ClCCCl [1,2-dichloroethane] | 1246.34 ± 0.6 |
| ClCCBr [1-bromo-2-chloroethane] | 1727.01 ± 2.2 |
| ClCBr [bromochloromethane] | 1924.55 ± 1.9 |
| BrCBr [dibromomethane] | 2478.36 ± 3.1 |
| CCCO [propan-1-ol] | 799.74 ± 0.49 |
